Data from a melting point compilation (Tetko et al.).

| Compound | melting point [°C] |
| --- | --- |
| COC(=O)C1=C(C)NC(=O)NC1c1ccc2c(c1)OCO2 (centres undefined) | 239 to 241 |
| O=C(O)c1ccc(F)cc1C(F)(F)F | 123 |
| N#Cc1ccc(N)c(N)c1 | 144 to 145 |
| Cc1nn2c(-c3ccccc3)nnc2s1 | 192 to 194 |
| CCC(=O)C=Cc1ccccc1 | 38.5 |
| CN1CCN(C(=O)OC2c3nccnc3C(=O)N2c2ccc(Cl)cn2)CC1 (centres undefined) | 178 |
| COc1cc(Cl)c(Cl)c(Cl)c1OC | 66 |
| CCCCCCCCc1ccccc1 | -36 |
| CCCCSc1sc(C(=O)OCC)c2c1C(=O)CCC2 | 70 to 73 |
| C=C1C(=O)C23C(OC(C)=O)CC4C(C)(C)CCCC4(COC(C)=O)C2C(OC(C)=O)CC1C3OC(C)=O (centres undefined) | 226 |
| c1ccc2cc3c(cc2c1)CC1OC1C3 (centres undefined) | 159 to 160 |
| O=C(Cl)c1ccc2sccc2c1 | 86 to 87 |
| O=C1Cc2cccc3cccc1c23 | 121 |
| O=C(CCl)Nc1ccc(Cl)cc1 | 168 to 170 |
| Nc1cc(Cl)c(C(F)(F)F)cc1[N+](=O)[O-] | 113 to 114 |
| CN1CCN(Cc2ccccc2N)CC1 | 87 to 88 |
| Cc1ccc(Oc2cccc(F)c2C#N)cc1 | 93 to 95 |
| Nc1cnc2ccccc2c1N | 183 to 185 |
| NC(=O)c1ccc(Cl)cc1Cl | 192 |
| COc1cccc(N(C)C(=S)Oc2cccc(C(C)(C)C)c2)n1 | 86 |
| Cc1cc(NC(=O)C=CC(=O)O)no1 | 165 to 172 |
| O=[N+]([O-])c1ccc(OC2OC(CO)C(O)C(O)C2O)cc1 (centres undefined) | 211 |
| N#CCC=CCC#N | 76 |
| COC(=O)Nc1nc2cc(C(=O)C3CC3)ccc2[nH]1 | 250 |
| Cc1ccc([N+](=O)[O-])c(I)c1 | 18 to 20 |
| CCC(Nc1ncnc(C)c1Cl)c1ccc(OC(F)F)cc1 (centres undefined) | 47.8 |

| Compound | melting point [°C] |
| --- | --- |
| O=[N+]([O-])c1ccc(-c2nnc3n2CN(c2ccc([N+](=O)[O-])cc2)CS3)cc1 | 320 |
| O=C(O)c1cccc(-c2ccco2)c1 | 157 to 158 |
| O=C(O)C1CC(=O)N(Cc2ccc(C(F)(F)F)cc2)C1 (centres undefined) | 128 to 130 |
| Clc1cc(Cl)c2c(oc3ccc(Cl)c(Cl)c32)c1Cl | 210 |
| CNc1cccc2ccccc12 | 174 |
| Cc1cc(Br)c(N)c(Br)c1 | 74 |
| CCOP(=O)(O)C(N)=O | 174 |
| Cc1onc(-c2ccccc2Cl)c1C(=O)O | 190 |
| Cn1c(=O)c(C2=NNC(=O)C2)c(O)c2ccccc21 | 287 |
| N#C/C(=N\Nc1ccc(O)cc1)c1nc2ccccc2[nH]1 | 255 |
| OCC#CCO | 56 |
| O=C(O)C1(C(F)(F)F)CC1 | 88 |
| Cc1cc(C)c(C(C)C)cc1C | 21 |
| COc1cc(C(=O)O)cc(OC(C)=O)c1OC | 151 |
| Oc1ccc(Br)c(O)c1 | 103 |
| N#Cc1cc(Br)ccc1F | 79 |
| CC1Cc2c(Cl)cc(C(=O)NC(Cc3ccccc3)C(=O)O)c(O)c2C(=O)O1 (centres undefined) | 169 |
| CC(C)CCC(C)C | -91 |
| CCCCc1c(C)nc(NC(=O)NS(=O)(=O)c2cccs2)nc1Cl | 188 to 189 |
| CNC1CCC2(C)C(CCC3C2CCC2(C)C3CCC2C(C)N(C)C)C1 (centres undefined) | 172 |
| COC1=C(C(C)C)C(=O)C2=C(C1=O)C1(C)CCCC(C)(C)C1CC2O (centres undefined) | 138 |
| CCOC(=O)C1=C(C)Nc2ccccc2S1 | 143 |
| C=Cc1c(SC)sc(C(=O)O)c1C | 172 to 174 |
| CN(C)C=C(C=O)c1ccccc1[N+](=O)[O-] | 119 to 120 |
| CC=NO | 45 |
| NC(=O)c1cnc2ccccc2n1 | 195 |

| Compound | melting point [°C] |
| --- | --- |
| CN1CCN(c2ccccc2C(=O)O)CC1 | 67 to 72 |
| CCOC(=O)C(C#N)=C(S)Nc1ccccc1 | 118 to 119 |
| CCCn1cnc2c1c(=O)n(CCCCC(C)=O)c(=O)n2C | 69 |
| Clc1nccc2sccc12 | 99 |
| N[C@@H](CCl)C(=O)O | 156 to 157 |
| COC(=O)c1c(C(=O)OC)c(-c2ccccc2)c2c(Cl)nc(Cl)cc2c1Sc1ccccc1 | 178 |
| O=C(O)c1ccc(OC(F)(F)C(F)F)cc1 | 176 to 177 |
| COC(=O)C1CCCc2c1[nH]c1cc(OC)ccc21 (centres undefined) | 92 |
| ClC[Si]12OCCN(CCO1)CCO2 | 221 |
| BrC(Br)C(Br)(Br)Br | 56.5 |
| O=S(=O)(c1ccccc1)n1c(CBr)cc2ccccc21 | 116 to 117 |
| CC(=O)Nc1ccc([N+](=O)[O-])c(C(F)(F)F)c1 | 108 to 109 |
| CCN(CC)CCN1C(=O)CN=C(c2ccccc2F)c2cc(Cl)ccc21 | 79.5 |
| COC(=O)c1cc2occc2n1C | 81 to 82 |
| O=C1OC(c2ccccc2)=N/C1=C/c1cc(/C=C2/N=C(c3ccccc3)OC2=O)c([N+](=O)[O-])cc1[N+](=O)[O-] | 266 |
| CC(O)(c1cc2ccccc2o1)c1cc2ccccc2o1 | 91 to 92 |
| CN(CCCC(=O)c1cccnc1)N=O | 67.5 |
| CC(=O)NC1C(Oc2ccccc2[N+](=O)[O-])OC(CO)C(O)C1O (centres undefined) | 204 to 208 |
| CCOC(=O)c1cn2ccsc2n1 | 87 to 91 |
| N#CCC(=O)N1CCCCC1 | 88 |
| CCOC(=O)c1cc(C)nc2ccc(Br)cc12 | 110 to 111 |
| CC1(C)C(C=Cc2cc(Br)cc([N+](=O)[O-])c2[O-])=[N+](Cc2ccccc2)c2ccccc21 | 208 |
| CC(C)C1(Cc2ccco2)C(=O)NC(=O)NC1=O | 169 |
| CCCCNC(=O)C(C(F)(F)F)C(F)(F)F | 94 |
| CC(=O)Nc1ccc(-c2ccc(F)cc2)cc1 | 205 to 207 |
| COc1cc(Cc2nccc3cc(OC)c(O)cc23)ccc1O | 209 |

| Compound | melting point [°C] |
| --- | --- |
| O=[N+]([O-])c1ccccc1-c1ccccc1[N+](=O)[O-] | 126 |
| CC(=O)c1c(O)c(C)c(O)c2c1OC1=CC(=O)C(C(C)=O)C(=O)C12C (centres undefined) | 204 |
| NC(=O)CC(O)C(=O)O (centres undefined) | 148 |
| Cc1cccc(C(=O)O)n1 | 130 |
| N=C1SCCN1CC(=O)c1ccc([N+](=O)[O-])cc1 | 210 |
| N#Cc1ncc(Cl)cc1Cl | 101 |
| Cc1onc(-c2ccccc2)c1N=C=S | 73 to 77 |
| CC(=O)C12OC(C)(c3ccccc3)OC1CC1C3CCC4=CC(=O)CCC4(C)C3CCC12C (centres undefined) | 150 |
| ClCCCCCCCCCCCCCl | 29 |
| NC1=C(C(=O)Nc2ccccc2)C(c2ccc(Br)cc2)C2Oc3ccccc3C2O1 (centres undefined) | 282 |
| O=C1OC2(c3ccccc31)c1cc([N+](=O)[O-])c(O)c(Br)c1Oc1c2cc([N+](=O)[O-])c(O)c1Br | 275 |
| CN(N)C(=O)c1cc(Cl)ccc1N | 78 to 81 |
| O=C1Cc2c1cccc2[N+](=O)[O-] | 115 to 117 |
| CC(C=CC=C(C)C=CC1=C(C)C=CCC1(C)C)=CC=O | 77.5 |
| Cc1cc(Cl)cc([N+](=O)[O-])c1 | 61 |
| CC(=O)n1c(C)cc2cc3cc(C)[nH]c3cc21 | 279 |
| CCOC(=O)c1c(-c2ccccc2)csc1NC(=O)c1ccc(Cl)cc1 | 171 to 172 |
| CC=CC(C)C(C)C=CC (centres undefined) | -64.8 |
| COc1cc(OC)cc(C(N)=O)c1 | 144 |
| CC(=O)OC1CCC2(C)C(CCC3C4=C(CCC32)C(C)(C#Cc2ccccc2)CC4)C1 (centres undefined) | 135 to 136 |
| CC(C)=CCC/C(C)=N/NC(N)=O | 136 |
| O=C1C=CC2(CCC23C=CC(=O)O3)O1 (centres undefined) | 158 |
| CCC(C)[C@@H]1NC(=O)OC1=O (some centres undefined) | 66 |
| Fc1c(F)c(F)c(Br)c(F)c1F | -31 |
| Cc1ccc(O)c(C(C)C)c1 | 36.5 |
| Cn1c2ccccc2n2c(=O)c3ccncc3c(C#N)c12 | 296 |

| Compound | melting point [°C] |
| --- | --- |
| c1ccc(-c2ccc(N=C(CNc3ccc(-c4ccccc4)cc3)Nc3ccc(-c4ccccc4)cc3)cc2)cc1 | 190 |
| COC(=O)c1cc2cc(N)ccc2s1 | 178 to 179 |
| ClC(Cl)(Br)CBr | -26 |
| CCOC(=O)c1c(NC(=S)Nc2ccccc2)sc2c1CCCC2 | 189 to 191 |
| O=C(O)C1CC1(F)F (centres undefined) | 58 |
| O=C1CC[C@H]2CCc3ccccc3[C@@H]2O1 | 138 to 141 |
| CNC(=O)Oc1cccc2ccccc12 | 142 |
| COC(=O)COc1ccc(Cl)cc1Cl | 119 |
| O=C(O)Cc1c[nH]c2ccc(Br)cc12 | 141 to 148 |
| CCCc1ssc(=S)c1C | 49 |
| O=C(O)c1sccc1Cl | 186 |
| CC1=C(c2ccccc2)Cc2ccccc21 | 75 |
| CCN(C(=O)N(CC)c1ccccc1)c1ccccc1 | 79 |
| Nc1nc2cc3nc(N)c(-c4ccccc4)cc3cc2cc1-c1ccccc1 | 301 |
| Cc1ccc(S(=O)(=O)CCO)cc1 | 54 to 58 |
| CCCCCCCCC(Br)C(=O)O (centres undefined) | 4 |
| CCCCCCCCCF | 1 |
| N#CSCC(=O)c1ccc(Cl)cc1 | 135 to 136 |
| Nc1c(O)cc(S(=O)(=O)O)c2ccccc12 | 295 |
| CN(C)c1ccccc1-c1ccccc1P(C1CCCCC1)C1CCCCC1 | 123 |
| Nc1c(Cl)cc(F)cc1Br | 56 |
| Nc1ccc(Cl)nn1 | 210 to 211 |
| CCCNc1cc(=O)oc2ccccc12 | 111 |
| O=C(O)c1ccc2occc2c1 | 189 to 190 |
| COC(=O)c1ccc(NC(C)=O)c(NC(C)=O)c1 | 225 |
